# “Also recorded” adds a separate entry of the source. Read-outs that look alike come from different tables or passages of the source.
# Experiments:
# [1] = Mouse pharmacokinetics, oral gavage, plasma LC-MS/MS; format: in vivo; conditions: for half-life: read-out: average half-life (t1/2); for plasma level: 1 mg/kg QD
# [2] = Clinical evaluation of overall health of mice in PK and efficacy studies; conditions: all mice used for in vivo PK and efficacy studies
# [3] = tested on: Giardia lamblia GS clone H7; assay: G. lamblia GS clone H7 trophozoite growth, ATP-based bioluminescence assay (BacTiter-Glo), 1,536-well; format: cell-based; conditions: Giardia duodenalis
# Experimental: (§1) Compounds were screened at 5 μM with metronidazole (40 μM) as an inhibitor control and dimethyl sulfoxide (DMSO) as a neutral control. […] These primary hits were immediately assayed for reconfirmation and mammalian cytotoxicity against HEK293T cells in an 8-point dose-response format.
# The primary screen was conducted at 5 μM. […] All source plates were 384-well acoustic, transfer-compatible plates with compounds prediluted in DMSO at either 2 mM or 10 mM. […] Primary screening was done with a single replicate, whereas dose-response testing was carried out in triplicate.
# To prevent attachment to the bottle and tubing of the dispenser cassette, the bottle containing the culture was kept on ice throughout the dispensing process. […] The bags were heat sealed and the anaerobic generator was activated according to the manufacturer’s instructions. […] Luminescence was read on a ViewLux uHTS microplate imager (PerkinElmer) with medium-sensitivity luminescence at 30 s of exposure.
# (§2) Relative luminescence unit (RLU) values were analyzed in Genedata Screener (v13.0-Standard). RLU values were normalized to neutral controls minus inhibitors (DMSO-treated wells minus metronidazole-treated wells). For single-point primary assay plates, an additional run-wise median correction was applied to reduce screen artifacts, whereas no corrections were applied to triplicate dose-response plates. For the mammalian cytotoxicity assays, RLU values were uploaded into Genedata Screener, and the data were normalized to those for DMSO-treated wells minus puromycin-treated wells.
# [4] = Allometric scaling of efficacious mouse doses to human-equivalent dose; conditions: 150 mg human dose (2.6 to 1.9 mg/kg) versus predicted human efficacious dose
# Experimental: Its chemical synthesis and safety profiles and a partial analysis of its pharmacokinetic properties have been described previously ([18], [43]). […] Given that the average adult weight worldwide ranges from 57.7 kg in Asia to 80.7 kg in North America ([46]), a 150 mg dose equates to 2.6 to 1.9 mg/kg. […]. This leaves a possible safety window of 4.6 to 13 times the efficacious dose, depending on the dose needed and the weight of the adult patient. Since the equivalent human efficacious dose (based on the murine efficacy data) is below the clinical trial threshold and the drug may not necessitate more than 7 daily doses, it could be speculated that all previously obtained good laboratory practices (GLP) toxicological data associated with the Phase I clinical trials remain relevant and may not need to be repeated. […] Reduced cost of development should have a direct impact on the cost of goods for the target population. This is certainly true for G. lamblia.
# [5] = HEK293T cytotoxicity counterscreen, luminescent ATP viability assay; conditions: human, HEK293T cells
# Experimental: as §1
# (§3) Experimental details for the assays were described previously ([50]). […] Assays were performed as previously reported ([51]).
# as §2
# [6] = HepG2 cytotoxicity, resazurin-based viability assay; format: cell-based; conditions: human, HepG2 cells; read-out: CC50 against HepG2 cells
# Experimental: as §3
# [7] = tested on: metronidazole-resistant 713-M3 strain; assay: Metronidazole-resistant G. lamblia 713-M3 cell growth inhibition assay; format: cell-based; conditions: Giardia duodenalis, read-out: EC50 against G. lamblia strain 713-M3
# [8] = design: method as in doi:10.1016/j.jtho.2016.11.1668; conditions: adults; >150 mg daily oral doses over 7 days; cited from earlier work
# [9] = CRL-8155 cytotoxicity, resazurin-based viability assay; format: cell-based; conditions: human, CRL-8155 lymphocytic cells; read-out: CC50 against CRL-8155 cells
# Experimental: as §3
# [10] = tested on: G. lamblia WB6 (assemblage A); assay: G. lamblia WB6 cell growth inhibition assay; format: cell-based; conditions: Giardia duodenalis; assemblage A; read-out: EC50 against G. lamblia strain WB6
# [11] = tested on: G. lamblia CBG99; conditions: mice
# Experimental: The method relies on a stable constitutive reporter, CBG99, that correlates with total parasite load.
# In vitro reconfirmation and expanded tests against EGFR-TKIs using the G. lamblia CBG99 strain were performed as previously described ([11]). […] The PK studies were performed in groups of 3 mice per compound. […] All animal experiments were approved by the Institutional Animal Care and Use Committees at the University of Washington.
# [12] = mouse, single oral dose 5 mg/kg
# [13] = mouse, single oral dose 20 mg/kg
# [14] = mouse, single oral dose 50 mg/kg
smiles,measurement,setting,value
"C=CC(=O)N[C@@H]1CN(c2nc(Nc3cn(C)nc3OC)c3ncn(C)c3n2)C[C@H]1F [Mavelertinib, N-((3R,4R)-4-fluoro-1–(6-((3-methoxy-1-methyl-1H-pyrazol-4-yl)amino)-9-methyl-9H-purin-2-yl)pyrrolidine-3-yl)acrylamide]",half-life,"[1]; in vivo, mouse, single oral dose 5 mg/kg",3.99 h
same,plasma trough levels,"[1]; infected mice, all treatment groups, days 6 and 7 postinfection (24 h and 48 h after the first dose)",below the limit of quantitation
same,plasma level,"[1]; mouse, 0.5 h postdose, one mouse",barely detectable
same,plasma level,"[1]; mouse, all time points after 0.5 h",below the limit of detection
same,plasma level,"[1]; mouse, all time points sampled (Fig. 4 legend)",barely detectable
same,time at which Cmax was observed (Tmax),"[1]; mouse, oral, in all cases (all doses)",0.5 h
same,plasma concentration at 24 h postdose,"[1]; mouse, single dose, all dosage groups",cleared from plasma; also recorded: below the detection limit
same,area under the curve (AUC),[1]; [12],89 µmol·min/L
same,clearance,[1]; [12],0.015 L/min
same,area under the curve (AUC),[1]; [13],300 µmol·min/L
same,clearance,[1]; [13],0.004 L/min
same,area under the curve (AUC),[1]; [14],812 µmol·min/L
same,clearance,[1]; [14],0.0016 L/min
same,Cmax,"[1]; plasma, mouse, single oral dose 5 mg/kg, read-out: maximum plasma concentration (Cmax)",0.63 µM
same,half-life,"[1]; plasma, mouse, single oral dose 20 mg/kg",2.91 h
same,Cmax,"[1]; plasma, mouse, single oral dose 20 mg/kg, read-out: maximum plasma concentration (Cmax)",3.5 µM
same,half-life,"[1]; plasma, mouse, single oral dose 50 mg/kg",2.09 h
same,Cmax,"[1]; plasma, mouse, single oral dose 50 mg/kg, read-out: average maximum plasma concentration (Cmax)",9.3 µM
same,observable toxicity,[2],no observable mavelertinib-induced toxicology potentials
same,EC50,"[3]; 48 h, 8-point dose response, triplicate, read-out: 48-h Giardia GS clone H7 EC50",2340 ± 80 nM
same,EC50,"[3]; Table 2, assemblage B, read-out: EC50 against G. lamblia strain GS clone 7",2340 ± 80 nM
same,possible safety window,[4],4.6 to 13 times the efficacious dose
same,CC50 at 72 h,[5],> 25000 nM
same,CC50,[6],> 80000 nM
same,EC50,[7],70 ± 20 nM
same,most common adverse events,[8],diarrhea and skin toxicities
same,CC50,[9],> 80000 nM
same,EC50,[10],270 ± 170 nM
same,clearance of infection (luminescence signal),[11]; 2.5 mg/kg QD for 2 days,one of four mice remained infected
same,clearance of infection (luminescence signal),"[11]; 5 mg/kg QD for 2 days, 5 mg/kg",cleared the infection below the background signal
same,clearance of infection (luminescence signal),"[11]; 5 mg/kg QD for 2 days, listed as mavelertinib, 5 mg/kg",absence of luminescence signal
same,clearance of infection (luminescence signal),"[11]; 20 mg/kg QD for 2 days, 20 mg/kg",cleared the infection below the background signal
same,clearance of infection (luminescence signal),"[11]; 20 mg/kg QD for 2 days, listed as mavelertinib, 20 mg/kg",absence of luminescence signal
same,clearance of infection (luminescence signal),"[11]; 50 mg/kg QD for 1 day, dose-response experiment, 50 mg/kg",cleared the infection below the background signal
same,clearance of infection (luminescence signal),"[11]; 50 mg/kg QD for 1 day, dose-response experiment, listed as mavelertinib, 50 mg/kg",absence of luminescence signal
same,clearance of infection,"[11]; 50 mg/kg QD for 3 days, data not shown",appeared to clear the infection
same,clearance of infection,"[11]; 50 mg/kg QD, 1- and 2-day dosing, remained clear a week after dosing",all treated mice were cleared of infection
same,parasite rebound after treatment,[11]; about 1 week after the last therapeutic dose,parasites did not rebound
